Laboratory results as given in patent publication US6660885B2, “Polycyclic aryl and heteroaryl substituted benzenes useful for selective inhibition of the coagulation cascade” (Pharmacia Corporation, priority 2000, dated 2003).
Where two headings read alike, the source gives them in different places.

Key:
Format in all cases: biochemical
human thrombin = human thrombin (Homo sapiens, UniProt P00734); assay: Thrombin Assay (chromogenic substrate, 405 nm); conditions: for IC50: read-out: Thrombin II IC50; for Thrombin II percent inhibition: at 30 (uM)
human factor Xa = target: T1, human factor Xa (Homo sapiens, UniProt P00742); assay: Xa Assay (chromogenic substrate S-2765, 405 nm)
T1 construct: leads from XII to XIIa to XIa to IXa and to the conversion of X to Xa; purchased Enzyme Research Laboratories, South Bend Ind
T1 sequence (P00742 235-488 limits assumed): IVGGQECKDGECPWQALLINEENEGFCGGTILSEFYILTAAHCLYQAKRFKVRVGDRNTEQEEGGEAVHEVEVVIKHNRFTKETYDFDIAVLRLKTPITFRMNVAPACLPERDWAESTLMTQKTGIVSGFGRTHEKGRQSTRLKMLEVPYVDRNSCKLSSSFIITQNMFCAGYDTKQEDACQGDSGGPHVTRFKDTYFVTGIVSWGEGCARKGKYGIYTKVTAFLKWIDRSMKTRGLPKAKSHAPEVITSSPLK
T1 sequence (P00742 41-179 limits assumed): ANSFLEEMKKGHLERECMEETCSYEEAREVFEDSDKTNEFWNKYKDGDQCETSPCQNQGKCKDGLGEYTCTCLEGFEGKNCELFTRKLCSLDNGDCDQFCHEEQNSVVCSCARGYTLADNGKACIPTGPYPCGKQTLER
Experimental: 0.3 nM human factor Xa and 0.15 mM N-a-Benzyloxycarbonyl-D-arginyl-L-glycyl-L-arginine-p-nitroaniline-dihydrochloride (S-2765) are added to a 96-well assay plate containing either inhibitor or buffer (50 mM Tris-HCl, pH 8.0, 100 mM NaCl, 0.1% BSA). The reaction, in a final volume of 100 ul is measured immediately at 405 nm to determine background absorbance. The plate is incubated at room temperature for 60 min, at which time the rate of hydrolysis of the substrate is measured by monitoring the reaction at 405 nm for the release of p-nitroaniline. Percent inhibition of Xa activity is calculated from OD405nm value from the experimental and control sample.
(§1) Recombinant soluble TF, consisting of amino acids 1-219 of the mature protein sequence was expressed in E. coli and purified using a Mono Q Sepharose FPLC. Recombinant human Vlla was purchased from American Diagnostica, Greenwich Conn. and chromogenic substrate N-Methylsulfonyl-D-phe-gly-arg-p-nitroaniline was prepared by American Peptide Company, Inc., Sunnyvale, Calif. Factor Xa was obtained from Enzyme Research Laboratories, South Bend Ind., thrombin from Calbiochem, La Jolla, Calif., and trypsin and L-BAPNA from Sigma, St. Louis Mo. The chromogenic substrates S-2765 and S-2238 were purchased from Chromogenix, Sweden.

[1] = target: T2, recombinant soluble tissue factor and recombinant human factor VIIa (TF-VIIa) (Homo sapiens, UniProt P08709); assay: TF-VIIa Assay (chromogenic substrate hydrolysis, 405 nm); conditions: read-out: IF-VIIA IC50
T2 construct: purchased American Diagnostica, Greenwich Conn; soluble TF made in house in E. coli
T2 sequence (P08709 213-466 limits assumed): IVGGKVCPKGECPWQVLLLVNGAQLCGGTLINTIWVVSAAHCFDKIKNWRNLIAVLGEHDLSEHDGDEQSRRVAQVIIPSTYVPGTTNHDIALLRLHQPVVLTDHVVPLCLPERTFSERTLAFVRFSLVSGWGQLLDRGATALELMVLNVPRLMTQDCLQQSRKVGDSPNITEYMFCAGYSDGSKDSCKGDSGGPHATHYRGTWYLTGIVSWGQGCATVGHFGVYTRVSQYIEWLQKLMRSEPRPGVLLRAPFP
T2 sequence (P08709 61-212 limits assumed): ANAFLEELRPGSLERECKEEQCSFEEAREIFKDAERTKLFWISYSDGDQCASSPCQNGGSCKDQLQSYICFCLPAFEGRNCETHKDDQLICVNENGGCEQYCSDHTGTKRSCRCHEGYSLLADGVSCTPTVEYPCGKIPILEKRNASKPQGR
T2 sequence (P13726 33-251 partner limits assumed): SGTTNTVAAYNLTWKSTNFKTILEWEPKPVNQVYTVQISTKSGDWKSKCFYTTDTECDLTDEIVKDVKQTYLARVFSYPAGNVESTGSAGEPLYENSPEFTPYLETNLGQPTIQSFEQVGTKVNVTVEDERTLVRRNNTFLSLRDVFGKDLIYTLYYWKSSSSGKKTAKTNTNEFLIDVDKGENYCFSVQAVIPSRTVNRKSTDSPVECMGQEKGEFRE

[2] = target: T3, trypsin, type IX from porcine pancreas (Sus scrofa, UniProt P00761); assay: Trypsin Assay (L-BAPNA, 405 nm)
T3 construct: purchased Sigma, St. Louis Mo; host or cells: porcine pancreas
T3 sequence (P00761 9-231): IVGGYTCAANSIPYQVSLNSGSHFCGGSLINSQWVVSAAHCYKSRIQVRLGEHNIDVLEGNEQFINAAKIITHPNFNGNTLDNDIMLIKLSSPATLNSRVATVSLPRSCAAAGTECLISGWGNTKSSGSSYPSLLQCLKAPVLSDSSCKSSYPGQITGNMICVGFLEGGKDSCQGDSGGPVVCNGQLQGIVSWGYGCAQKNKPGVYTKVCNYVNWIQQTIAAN
Experimental: 5 ug/ml trypsin, type IX^0 from porcine pancreas and 0.375 mM N-α-Benzoyl-L-arginine-p-nitroanilide (L-BAPNA) are added to a 96-well assay plate containing either inhibitor or buffer (50 mM Tris-HCl, pH 8.0, 100 mM NaCl, 0.1% BSA). The reactions, in a final volume of 100 ul are measured immediately at 405 nm to determine background absorbance. The plate is incubated at room temperature for 60 min, at which time the rate of hydrolysis of the substrate is measured by monitoring the reaction at 405 nm for the release of p-nitroaniline. Percent inhibition of trypsin activity is calculated from OD405nm value from the experimental and control sample.
as §1

Row | IC50 (human thrombin) [µM] | IC50 (human factor Xa) [µM] | IC50 [1] [µM] | IC50 ([2]; read-out: Trpysin II IC50) [nM] | Factor Xa percent inhibition (human factor Xa; concentration not given) [%] | Factor Xa percent inhibition (human factor Xa; at 30 (uM)) [% at 30] | SMILES | Thrombin II percent inhibition (human thrombin) [% at 30] | IC50 [2] [nM]
1 | > 100 | > 100 | > 100 | > 100000 | – | – | N=C(N)NCCCNC(=O)c1cc(NS(=O)(=O)Cc2ccccc2)ccc1Sc1ccccc1 [Example 6] | – | –
2 | – | – | – | < 40 | 18 | – | CC(C)Nc1ccc(-c2cccc(N)c2)c(CC(=O)NCc2ccc(C(=N)N)cc2)c1F [Example 21] | – | –
3 | 9 | > 30 | 0.67 | 200 | – | – | N=C(N)c1ccc(CNC(=O)Cc2c(-c3cccc(N)c3)ccc(NCc3ccccc3)c2F)cc1 [Example 20] | – | –
4 | 7 | – | 2.7 | 200 | – | – | N=C(N)c1ccc(CNC(=O)Cc2c(-c3ccccc3)ccc(NCCc3ccccc3)c2O)cc1 [Example 19] | – | –
5 | – | – | – | – | – | – | Cl.N=C(N)c1ccc(CNC(=O)c2cc(NS(=O)(=O)Cc3ccccc3)ccc2Sc2ccccc2)cc1 [Example 4] | 22 | 300
6 | > 30 | – | – | > 30000 | – | – | O=C(NCc1ccncc1)c1cc(NS(=O)(=O)Cc2ccccc2)ccc1Sc1ccccc1 [Example 3] | – | –
7 | > 30 | > 30 | – | > 30000 | – | – | O=C(Cc1c(F)ccc(NS(=O)(=O)Cc2ccccc2)c1F)NCc1ccncc1 [Example 11] | – | –
8 | 9.5 | > 30 | 25 | 500 | – | – | COc1c(NCCc2ccccc2)ccc(-c2ccccc2)c1CC(=O)NCc1ccc(C(=N)N)cc1 [Example 18] | – | –
9 | > 30 | > 30 | – | > 30000 | – | – | N=C(N)c1cccc(CNC(=O)Cc2c(F)ccc(NS(=O)(=O)Cc3ccccc3)c2F)c1 [Example 13] | – | –
10 | 7 | – | 4 | 200 | – | – | N=C(N)c1ccc(CNC(=O)Cc2c(-c3ccccc3)ccc(NCCc3ccccc3)c2F)cc1 [Example 17] | – | –
11 | – | – | > 30 | 23000 | – | 7 | N=C(N)c1cccc(CNC(=O)c2cc(NS(=O)(=O)Cc3ccccc3)ccc2Sc2ccccc2)c1 [Example 5] | 43 | –
12 | 1.6 | – | 16.4 | 800 | – | 1 | N=C(N)c1ccc(CNC(=O)Cc2c(F)ccc(NCCc3ccccc3)c2F)cc1 [Example 16] | – | –
13 | > 30 | > 30 | – | > 30000 | – | – | CN(C)c1ccc(CNC(=O)Cc2c(F)ccc(NS(=O)(=O)Cc3ccccc3)c2F)cc1 [Example 10] | – | –
14 | 7.9 | – | 14.7 | 100 | – | – | COc1c(NC(C)C)ccc(-c2ccccc2)c1CC(=O)NCc1ccc(C(=N)N)cc1 [Example 22] | – | –
15 | ~30 | – | – | 7300 | – | – | N=C(N)c1ccc(CNC(=O)Cc2c(F)ccc(NS(=O)(=O)Cc3ccccc3)c2F)cc1 [Example 14] | – | –
16 | > 30 | – | – | 300 | – | – | O=C(Cc1c(F)ccc(NS(=O)(=O)Cc2ccccc2)c1F)NCC1CCNCC1 [Example 9] | – | –
17 | > 30 | – | – | > 30000 | – | – | N=C(N)NCCCCCNC(=O)Cc1c(F)ccc(NS(=O)(=O)Cc2ccccc2)c1F [Example 15] | – | –
18 | > 100 | > 100 | > 100 | > 100000 | – | – | N=C(N)NCCCCCNC(=O)c1cc(NS(=O)(=O)Cc2ccccc2)ccc1Sc1ccccc1 [Example 8] | – | –
19 | > 30 | – | – | > 30000 | – | – | CN(C)c1ccc(CNC(=O)c2cc(NS(=O)(=O)Cc3ccccc3)ccc2Sc2ccccc2)cc1 [Example 2] | – | –
20 | > 30 | – | – | > 30000 | – | – | O=C(Cc1c(F)ccc(NS(=O)(=O)Cc2ccccc2)c1F)NCCCn1ccnc1 [Example 12] | – | –

Row | SMILES | IC50 (human thrombin) [µM] | IC50 (human factor Xa) [µM] | IC50 [1] [µM] | IC50 ([2]; read-out: Trpysin II IC50) [nM] | Factor Xa percent inhibition (human factor Xa; concentration not given) [%] | Factor Xa percent inhibition (human factor Xa; at 30 (uM)) [% at 30] | Thrombin II percent inhibition (human thrombin) [% at 30] | IC50 [2] [nM]
21 | N=C(N)NCCCCNC(=O)c1cc(NS(=O)(=O)Cc2ccccc2)ccc1Sc1ccccc1 [Example 7] | > 100 | > 100 | > 100 | > 100000 | – | – | – | –
22 | O=C(NCC1CCNCC1)c1cc(NS(=O)(=O)Cc2ccccc2)ccc1Sc1ccccc1 [Example 1] | > 30 | > 30 | – | 300 | – | – | – | –
